# Experimental data from patent US20230000806A1, “COMPOSITIONS AND METHODS FOR GLUTATHIONE ENHANCEMENT FOR USE IN BRAIN HEALTH” (SOCIETE DES PRODUITS NESTLE S.A., priority 2019, published 2023).
# Key:
# rat primary astrocytes [1] = experiment: Intracellular GSH by GSH-Glo Assay in rat primary astrocyte culture; assay type: cell-based; conditions: standard culture conditions (no cysteine depletion); 48 hrs after treatment; normalized to total proteins
# Method: Intracellular GSH was measured in rat primary astrocytes in culture by using a GSH-Glo™ Assay, which is a luminescent-based assay for the detection and quantification of reduced and/or total glutathione levels in cells. The assay converted luciferin derivatives into luciferin in the presence of GSH. The reaction was catalyzed by a glutathione S-transferase (GST) enzyme supplied in the kit. The luciferin formed was detected in a coupled reaction using Ultra-Glo™ Recombinant Luciferase that generated a glow type luminescence that was proportional to the amount of glutathione present in cells. A standard curve was used for each biological replicate and at least 4 technical replicates were done for each condition and for each biological replicate. 10% of lysate of each technical and biological replicate was used to measure protein amount by BCA and used to normalize the GSH intracellular content to total proteins. Buthionine sulfoximine (BSO) a specific inhibitor of γ-glutamylcysteine ligase (GCL) was added at 15 mM at the time of the start of the treatment to confirm the specificity of the readout. Measurements were performed 48 hrs after treatment. Results were compared to the control condition for each biological replicate and for each condition.
# rat primary astrocytes [2] = experiment: Cytoplasmic reactive oxygen species (ROS) measurement with CellROX Deep Red; assay type: cell-based; conditions: 48 hrs after treatment; oxidative stress triggered by 250 μM tBHP for 1 hour; vs control
# Method: Cytoplasmic ROS was measured in rat primary astrocytes in culture by CellROX® Deep Red reagent, a novel cell-permeant dye with absorption/emission maxima of ˜644/665 nm. CellROX® Deep Red reagent while in a reduced state is non-fluorescent and becomes fluorescent upon oxidation by reactive oxygen species with emission maxima ˜665. CellMask™-green stains plasma membrane and DAPI stains nuclei. We used the green channel and the dapi to segment the image in cytoplasmic and nuclear areas and measure the CellROX deep red signal in these areas. As CellROX® Deep Red is a better read out for cytoplasmic ROS, we measure the average intensity in the cytoplasm and normalized to the average cytoplasmic area. Cell count using DAPI was performed to establish toxicity or cell detachment for each condition. Images were taken to cover all the area of the well where cells were seeded and at least 4 technical replicates were done for each condition and for each biological replicate. Measurements were performed at 48 hrs after treatment at baseline and after oxidative stress where oxidative stress was triggered by 250 μM tBHP for 1 hour. Results were compared to the control condition at baseline for each biological replicate and for each condition.
# Nrf2 = experiment: Measurement of nuclear Nrf2 in astrocytes (immunostaining); assay type: cell-based, rat; conditions: 48 hrs after treatment; for increase Nrf2 levels in the cell nucleus: significant; for Nrf2 activation: vs control (water or 0.1% DSMO)
# Method: Nuclear Nrf2 was measured in rat primary astrocytes in culture. The cells were stained with Nrf2 (Abcam ab89443 1:500), Tubulin (Abcam ab 89984 1:1000) antibodies and DAPI as nuclear counterstaining. We used the tubulin channel and the DAPI to segment the image in cytoplasmic and nuclear areas and measure the Nrf2 signal in these areas. We measure the average intensity in the nucleus and normalized to the average nuclear area. Cell count using DAPI was performed to establish toxicity or cell detachment for each condition. Images were taken to cover all the area of the well where cells were seeded and at least 6 technical replicates were done for each condition and for each biological replicate. Measurements were performed 48 hrs after treatment with each of the compounds: N-Acetylcysteine dissolved in water, while Puerarine, Sulfurophane, Taurine at different doses were dissolve in a 0.1% DSMO final solution. They were compared to the control in each condition which was water or 0.1% DSMO alone. Results were compared to the control condition for each biological replicate and for each condition. Statistics were done using Kruskal-Wallis Multiple Comparison test.
# rats [3] = experiment: Operant conditioning, progressive ratio reinforcement schedule (motivated behaviour); assay type: in vivo, rat; conditions: vs vehicle
# Method: Adult male outbred rats were trained for nose poke for saccharine food pellets for one week on an FR1 training schedule as described in the methods below. Rats were then treated with either normal drinking water (vehicle) or N-acetyl cysteine (NAC) in the drinking water (FIG. 22A) at a dose that was previously shown to enhance GSH levels (FIG. 22B). Following 2 weeks of treatment, rats were given an additional 2 training sessions, followed 24 h later by a progressive ratio session designed to test their motivated behaviour. During this progressive ratio session, rats have to increasingly work harder to earn the saccharine pellet, as described in the methods below. […] The breakpoint is defined as the last step in the session where the animals received a reward and is a direct correlate of their willingness to exert an effort. […] Animals: Adult male Wistar rats (Charles Rivers, Saint-German-Nuelle, France) weighing 250-275 gr at the beginning of the experiment were used for all experiments. Rats were individually housed in cages in housing colonies on a 12:12 h reversed light:dark cycle with lights on at 20:00, and lights-off at 8:00. Food and water were available ad libitum. Following a week of acclimatization to the animal facilities, rats were handled for 2 min per day for three days prior to the start of the experiments, in order to habituate to the experimenters. Operant conditioning: Ten days after introduction to the reversed day-night cycle, rats started training in a fixed ratio 1 reinforcement schedule (FR1). Operant chambers (Coulbourn Instruments, Holliston, Mass., US), placed in sound attenuating cubicles, were equipped with a grid, underneath which a tray with standard bedding material was placed for collection of feces and urine after each training session. Each chamber had one food tray and two ports placed on either side of the tray. A cue light was placed in each port and the food tray, whereas a house light was placed above the food tray. The right-hand side port of each chamber was designated as “active”, meaning that spontaneous nosepoking would result in the drop of one 45 mg food pellet (Bio-Serv, Flemington, N.J., USA) to the food tray. Upon nosepoking in the active port, the cue and house lights were turned off, while the tray light turned on and the pellet dropped to the food tray. […] Subsequently, the chamber returned to its initial condition. Each training session lasted maximally two hours or until a rat acquired 100 pellets. Each rat received six training sessions (one training on each day for five consecutive days, followed by two days without training and one training session on day 8). Only rats that finished at least two training sessions acquiring 100 pellets before the two-hour mark were used for progressive ratio experiments. Subsequently, rats were treated with N-acetyl cysteine in the drinking water (500 mg/L) or continued having access to normal water (control). After two weeks of treatment, rats were exposed to another two days of FR1 training to ensure their training performance was similar to pre-treatment levels. To test motivated behaviour, rats were exposed to a progressive ratio reinforcement schedule (progressive ratio test). Progressive ratio sessions were identical to training sessions except that the operant requirement in each trial (T) was the integer (rounded down) of the function 1.4^(T-1) starting at one nosepoke for the first three trials and increasing in subsequent trials for rats (Wanat et al. Nat Neurosci. 2013; 16(4):383-5). Progressive ratio sessions lasted two hours. Correct nosepokes (i.e. nosepokes in the active port and outside the timeout period, thus resulting in food delivery) were calculated to evaluate behavioural performance, as well as the number of acquired rewards and the last completed ratio (breakpoint). Investigation of the Nucleus accumbens was undertaken in cannulated rats which were then moved to a reverse light-dark cycle to recover for 10 days. […]
# rats [4] = experiment: GSH levels in the nucleus accumbens of treated rats; assay type: in vivo, rat
# rat primary astrocytes [5] = experiment: Intracellular GSH in astrocytes in medium reduced in cysteine and methionine; assay type: cell-based; conditions: medium depleted of methionine and cystine, supplemented with 15% FBS
# Method: Intracellular GSH was measured in rat primary astrocytes in culture by using a GSH-Glo™ Assay, which is a luminescent-based assay for the detection and quantification of reduced and/or total glutathione levels in cells. The assay converted luciferin derivatives into luciferin in the presence of GSH. The reaction was catalyzed by a glutathione S-transferase (GST) enzyme supplied in the kit. The luciferin formed was detected in a coupled reaction using Ultra-Glo™ Recombinant Luciferase that generated a glow type luminescence that was proportional to the amount of glutathione present in cells. A standard curve was used for each biological replicate and at least 4 technical replicates were done for each condition and for each biological replicate. 10% of lysate of each technical and biological replicate was used to measure protein amount by BCA and used to normalize the GSH intracellular content to total proteins. […] Measurements were performed 48 hrs after treatment. […] To measure GSH increase after N-acetyl cysteine (Nac) and L-cysteine supplementation, rat primary astrocytes were cultured in medium depleted of methionine (a precursor of cysteine) and cystine but still supplemented with 15% FBS to not have a full depletion but rather a reduction of these amino acids. Experiments were performed only with the same batch of FBS to avoid any difference in amino-acid content amongst batches. […]
# [6] = single infusion in the Nucleus Accumbens, 1 μl of 7 μg/μl, 24 hours before
# [7] = NAC in the drinking water (500 mg/L), 2 weeks
compound,measurement,setting,value
C[S+]([O-])CCCCN=C=S (stereo not drawn) [Sulfurophane],intracellular glutathione,rat primary astrocytes [1],increases intracellular glutathione
same,reactive oxygen species after oxidative stress,rat primary astrocytes [2],decreases reactive oxygen species
same,increase Nrf2 levels in the cell nucleus,Nrf2; 2 μM,≤ 20%
CCNC(=O)CC[C@H](N)C(=O)O [L-theanine],intracellular glutathione,rat primary astrocytes [1],increases intracellular glutathione
same,reactive oxygen species after oxidative stress,rat primary astrocytes [2],decreases reactive oxygen species
"C[N+](C)(C)C(Cc1c[nH]c(S)n1)C(=O)O.[OH-] (stereo not drawn) [Ergothioneine, 1-carboxy-2-[2-mercaptoimidazole-4-(or 5)-yl]ethyl]-trimethyl-ammonium hydroxide]",intracellular glutathione,rat primary astrocytes [1],increases intracellular glutathione
same,reactive oxygen species after oxidative stress,rat primary astrocytes [2],decreases reactive oxygen species
same,increase Nrf2 levels in the cell nucleus,Nrf2; 0.5 mM,≤ 18%
O=c1c(-c2ccc(O)cc2)coc2c([C@@H]3O[C@H](CO)[C@@H](O)[C@H](O)[C@H]3O)c(O)ccc12 [Puerarine],intracellular glutathione,rat primary astrocytes [1],increases intracellular glutathione
same,reactive oxygen species after oxidative stress,rat primary astrocytes [2],decreases reactive oxygen species after oxidative stress in a dose dependent manner
same,increase Nrf2 levels in the cell nucleus,Nrf2; highest dose of 10 μm,≤ 20%
"CCCCS(=N)(=O)CCC(N)C(=O)O (stereo not drawn) [BSO, Buthionine sulfoximine]",change in breakpoint (PR-schedule),rats [3]; [6],−68%
same,change in correct nosepokes (PR-schedule),rats [3]; [6],−60%
same,change in rewards (PR-schedule),rats [3]; [6],−22%
same,reduction of GSH levels in the Nucleus Accumbens,"rats [4]; single infusion in the Nucleus Accumbens, 1 μl of 7 μg/μl, 24 hours before the test, vs vehicle",29%
N[C@@H](CS)C(=O)O [L-cysteine],GSH intracellular level,rat primary astrocytes [5],significantly increase the GSH intracellular level
"CC(=O)N[C@@H](CS)C(=O)O [N-Acetylcysteine, reference compound]",breakpoint level in progressive ratio session,rats [3]; [7],significantly higher breakpoint level
same,nose pokes in progressive ratio session,rats [3]; [7],significantly more nose pokes
same,number of rewards in progressive ratio session,rats [3]; [7],greater number of rewards
same,intracellular glutathione,rat primary astrocytes [1],does not increase intracellular glutathione
same,GSH intracellular level,rat primary astrocytes [5],significantly increase the GSH intracellular level
same,reactive oxygen species after oxidative stress,rat primary astrocytes [2],decreases reactive oxygen species
same,Nrf2 activation,Nrf2,does not activate Nrf2
same,GSH in the nucleus accumbens,"rats [4]; NAC in the drinking water (500 mg/L), 2 weeks, vs vehicle treated rats",enhanced GSH in the nucleus accumbens
"NCCS(=O)(=O)O [Taurine, 2-aminoethanesulfonic acid]",intracellular glutathione,rat primary astrocytes [1],increases intracellular glutathione
same,reactive oxygen species after oxidative stress,rat primary astrocytes [2],decreases reactive oxygen species
same,Nrf2 activation,Nrf2,does not activate Nrf2
